From paper PMC10945739, “Exploring Cassia mimosoïdes as a promising natural source of steroids with potent anti-cancer, urease inhibition, and antimicrobial properties” (RSC Advances, 2024)
Where two headings read alike, the source gives them in different places.

Assays:
H.pylori = test: Antibacterial activity, agar well diffusion method; assay type: cell-based, Helicobacter pylori; settings: Table S2 and b89; unit not given
Description: (§1) Antibacterial activity of the isolated and synthesized compounds was perform using agar well method. Three bacterial strains selected for this experiment were H.pylori, B. subtilis and S. aureus, for all of three strains compounds show good to mederate inhibition. […] The presence of H. pylori in the stomach has been associated with a range of gastric disorders, including peptic ulcers, gastritis, and an increased risk of gastric cancer. The bacterium's ability to manipulate the gastric environment through urease activity underscores its role in the development and progression of these conditions. Different studies have targeted H. pylori and its urease activity as potential avenues for therapeutic intervention and disease management (Fig. 4).
(§2) The agar well diffusion method evaluated every compound separately. Each sterile Petri plate was aseptically filled with 20 mL of the agar medium, which was then […]. The media then solidified at room temperature. Various bacterial strains were put to agar plates using a sterile cotton swab. A 6 mm-diameter well was drilled using a sterilized cork borer. Each isolated compound was dissolved in 1 mL of a 20% DMSO solution. In a well with a diameter of 6 mm, […] of the standard drug and isolated compounds were added. […] The zone of inhibition was graphed and quantified in millimeters.[20]

S. aureus = test: Antibacterial activity, agar well diffusion method; assay type: cell-based, Staphylococcus aureus; settings: Table S2 and b89; unit not given
B. subtilis = test: Antibacterial activity, agar well diffusion method; assay type: cell-based; settings: Table S2; unit not given
Description: as §1, §2

Jack bean urease = Jack bean urease (Canavalia ensiformis, UniProt P07374); test: biochemical; assay type: biochemical
Procedure: The inhibition potential of the isolated compounds against urease was investigated using a SpectraMax M2 reader using 96-well microplates.
The kinetic assay involved preparing varying concentrations of both the test compound and the substrate (urea), spanning 0 μM, 5 μM, 10 μM, 15 μM, and 20 μM. The resulting data was utilized to construct a Lineweaver–Burk plot.
In 96-well plates were incubated at 37 °C for 15 min, reaction mixtures consisting of 25 μL of test compounds (each 0.5 mM), 25 μL of enzyme solution (Jack bean urease) and 55 μL of buffers containing 20.79 mM urea. The indophenol method described by Weatherburn[21] was used to determine urease inhibitor activity by measuring ammonia production. Briefly, to each well were added 70 μL of alkaline reagent (0.5% w/v NaOH and 0.1% active chloride, NaOCl) and 45 μL of phenolic reagent (1% w/v phenol and 0.005% w/v sodium nitroprusside). The microplate reader (Molecular Devices, USA) was used to measure the increase in absorbance at 650 nm after 50 min. A final volume of 245 μL was required to perform all reactions in a triplicate. The results (absorbance change per minute) were processed using SoftMax Pro software (Molecular Devices, USA). All assays were performed at pH 6.8. Inhibition percentages were calculated from the formula% Inhibition = 100 − (Abs(sample)/Abs(control)) × 100where “A” is the absorbance of the “test well” as well as the “control”. Thiourea was used as a standard.

[1] = system: human HepG2 hepatic cancer cells; test: MTT cell viability assay; assay type: cell-based; settings: HepG2, MTT, 48 hours, at 200 μg
Procedure: The human liver cells were cultivated in Dulbecco's modified Eagle medium (DMEM) in which 100 U mL^−1 penicillin, 10% fetal bovine and […] streptomycin were added and kept at 37 °C in a […] carbon dioxide induced humidified environment. The human liver cells prepared as per above procedure were then treated with synthesized compounds diluted to 0.05% DMSO concentration.
Using MTT assay, the % viability of cancer cells 36 was evaluated. According to the standard procedure, HepG2 cells were treated with various dosages of synthesized compounds for 48 hours each. The cells were then incubated for 4 hours at 37 °C with 10μ MTT reagent (5 mg mL^−1). Next, in 150 μL DMSO was added to dissolve formazan crystals. The λmax was recorded at 409 nm in a microplate reader (thermos scientific).

Sequence of Jack bean urease (P07374 whole entry, looked up): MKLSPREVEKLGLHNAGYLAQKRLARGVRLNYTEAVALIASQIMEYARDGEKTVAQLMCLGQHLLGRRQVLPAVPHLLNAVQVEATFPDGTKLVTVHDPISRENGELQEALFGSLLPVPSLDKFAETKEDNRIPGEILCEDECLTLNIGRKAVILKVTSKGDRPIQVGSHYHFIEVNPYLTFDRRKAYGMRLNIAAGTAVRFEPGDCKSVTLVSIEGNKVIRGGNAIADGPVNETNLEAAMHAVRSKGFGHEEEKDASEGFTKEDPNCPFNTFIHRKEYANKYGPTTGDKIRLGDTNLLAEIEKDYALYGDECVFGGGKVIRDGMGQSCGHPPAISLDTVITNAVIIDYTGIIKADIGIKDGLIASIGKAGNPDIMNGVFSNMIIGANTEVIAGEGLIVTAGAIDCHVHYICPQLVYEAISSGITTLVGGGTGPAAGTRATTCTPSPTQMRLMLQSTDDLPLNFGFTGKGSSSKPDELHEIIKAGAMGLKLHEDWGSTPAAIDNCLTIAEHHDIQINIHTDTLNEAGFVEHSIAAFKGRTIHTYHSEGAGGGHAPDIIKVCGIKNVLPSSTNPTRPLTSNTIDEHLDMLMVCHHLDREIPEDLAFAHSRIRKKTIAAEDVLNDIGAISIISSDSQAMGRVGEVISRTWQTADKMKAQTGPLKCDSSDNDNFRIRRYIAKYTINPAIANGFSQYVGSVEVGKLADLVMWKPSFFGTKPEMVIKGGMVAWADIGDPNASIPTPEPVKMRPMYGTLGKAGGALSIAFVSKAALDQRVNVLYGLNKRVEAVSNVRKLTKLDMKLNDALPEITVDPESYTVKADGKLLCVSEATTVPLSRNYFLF

**Q.** How did the “Antibacterial activity (MIC) against H.Pylori” value (H.pylori) turn out when `O=c1cc(-c2ccc(O)c(O)c2)oc2cc(O)c([C@@H]3O[C@H](CO)[C@@H](O)[C@H](O)[C@H]3O)c(O)c12` [Compound 7, Luteolin-6-C-β-D-glucopyranoside] was run?
**A.** 1.23

**Q.** What about the “Antibacterial activity (MIC) against S. aureus” value (S. aureus) of the same compound?
**A.** 0.78

**Q.** What about the “Antibacterial activity against B. subtilis” value (B. subtilis) of the same compound?
**A.** 0.12

**Q.** And the IC50 (Jack bean urease; pH 6.8, read-out: IC50 ± SEM, urease)?
**A.** 1220 ± 430 nM

**Q.** And the “% Inhibition of urease” value (Jack bean urease; test compounds each 0.5 mM, pH 6.8)?
**A.** 81.57%

**Q.** And the IC50 (Jack bean urease; unit inferred, read-out: IC50, urease (printed in Fig. 6))?
**A.** 1220 ± 430 nM

**Q.** What about the “% Viability” value [1] of the same compound?
**A.** 97.94 ± 3.53%
